Results on six compounds are retold here after patent US4056629A, “Pharmacologically active O-acyl-2,3-diaryl-3-halogeno-acryl-aldoximes” (Hoechst Aktiengesellschaft, priority 1975, dated 1977).

The subject of experiment [1] is gout-like disturbance of the purine metabolism. Nature of the experiment: 3-day cycle in the oxonate rat (uric acid in urine on days 1-3 and in serum on day 3). The note with it: for Serum Uric acid conc.: third day, * statistically significant p < 0.05 (Duncan test). It is filed as in vivo, white male Wistar rats. The method, then: (§1) The uricosuric and hypouricemic effects were observed by way of experiment on the oxonate rat. In this experimental test arrangement the uricase activity of the rat liver was inhibited by the administration of potassium oxonate, thus producing a gout-like disturbance of the purine metabolism. The effect was tested in the following test arrangement:
2. The influence on the gout-like metabolism disturbance which had been induced by way of experiment was also examined in a 3-day cycle. For this purpose, the animals (white male Wistar rats) were placed into the metabolism cages 18 hours prior to the start of the experiment. The animals drank water, and they were offered a special fodder mixture to consume ad libitum. The composition of the fodder mixture was as follows: 5 % of fructose, 3% of uric acid, 2 % of potassium oxonate, and 100 mg of synthetic sweetening agent (acesulfame) per 1 kg of body weight. On the first and second days of the experiment, the compositions were administered to the animals, in a 0.5 % potassium-oxanate solution, into the stomach by way of an esophagal sound. The urine samples were examined on the first, second and third days of the experiment, and the serum samples were tested for their uric acid content on the third day of the experiment.
In Table 4 the results following the application of allopurinol (as comparative substance) have been indicated in the above-mentioned experimental scheme.

Experiment [2] shares this test system. Kind of experiment: 24-hour test in the oxonate rat (uric acid, urine volume, pH and Na+ after potassium oxonate). It is filed as in vivo, male Wistar rats. The note with it: for Uric acid serum (-x (mg %) ± SD): control 5.41 + 0.66, * statistically significant (U test); for Activity in words (heading of Table 2): Example 14 combined with the increase of diuresis and the excretion of sodium. The method, then: as §1
1. The influence on the gout-like disturbance of the purine metabolism which had been induced by way of experiment was tested in a 24 hour test. In this test arrangement, the animals are given the substances in a 0.5 % potassium-oxonate solution into the stomach by means of an esophagal sound, after water and fodder had been withheld for 18 hours. During the entire test period, the animals are given the 0.5 % potassium-oxonate solution ad libitum. After 8 hours, they are additionally given 5 ml of water per 100 g of body weight into the stomach, by way of an esophagal sound. After 24 hours urine samples were taken, the animals were killed in a narcosis produced by ether, and the blood and urine were analysed for the content of uric acid. In addition, the creatinine concentration, the sodium, potassium and chloride concentration in the urine and serum samples were determined.

Where [3] appears, read: Table 3, 3 mg/kg, 1st day, oxonate control 3.38.
Setting [4] is: Table 3, 3 mg/kg, 1st day, oxonate control 42.5.
Where [5] appears, read: Table 3, 3 mg/kg, 2nd day, oxonate control 3.83.
Where [6] appears, read: Table 3, 3 mg/kg, 2nd day, oxonate control 42.9.
[7] abbreviates: Table 3, 3 mg/kg, 3rd day, oxonate control 5.17.
[8] abbreviates: Table 3, 3 mg/kg, 3rd day, oxonate control 48.8.
The mark [9] stands for this setting: Table 3, 3 mg/kg, oxonate control 5.49.
Setting [10] is: Table 2 II, 0.3 mg/kg, control = 100.
The mark [11] stands for this setting: Table 2 II, 3.0 mg/kg, control = 100.
Setting [12] is: Table 2 I, 3 mg/kg, oxonate control group = 100.

For `Oc1ncnc2[nH]ncc12` [Allo, Allopurinol, reference compound], the “Urine Amount of uric acid” value in experiment [1] (Table 4, 50 mg/kg, 1st day, oxonate control 0.80) was determined as 0.91 mg/24 h; in experiment [1] (Table 4, 50 mg/kg, 2nd day, oxonate control 2.6), 2.1 mg/24 h; in experiment [1] (Table 4, 50 mg/kg, 3rd day, oxonate control 3.4), 3.8 mg/24 h; in experiment [1] (Table 4, 100 mg/kg, 1st day, oxonate control 0.80), 0.9 mg/24 h; in experiment [1] (Table 4, 100 mg/kg, 2nd day, oxonate control 2.6), 2.0 mg/24 h; in experiment [1] (Table 4, 100 mg/kg, 3rd day, oxonate control 3.4), 3.7 mg/24 h. Moreover, the “Urine Uric acid conc.” value amounted to 11.6 mg % in experiment [1] (Table 4, 50 mg/kg, 1st day, oxonate control 11.3); 18.7 mg % in experiment [1] (Table 4, 50 mg/kg, 2nd day, oxonate control 23.9); 31.6 mg % in experiment [1] (Table 4, 50 mg/kg, 3rd day, oxonate control 36.4); 12.7 mg % in experiment [1] (Table 4, 100 mg/kg, 1st day, oxonate control 11.3); 19.9 mg % in experiment [1] (Table 4, 100 mg/kg, 2nd day, oxonate control 23.9); 28.2 mg % in experiment [1] (Table 4, 100 mg/kg, 3rd day, oxonate control 36.4). For the same compound, the “Serum Uric acid conc.” value was 6.2 mg % in experiment [1] (Table 4, 50 mg/kg, oxonate control 6.7) and 5.2 mg % in experiment [1] (Table 4, 100 mg/kg, oxonate control 6.7).

As to `O=C(ON=CC(=C(Br)c1ccccc1)c1ccccc1)c1ccccc1` [Example 5, O-benzoyl-2-phenyl-3-bromo-cinnamic aldoxime], the “Urine Amount of uric acid” value is on record as 2.59 mg/24 h in experiment [1] (setting [3]), 2.41 mg/24 h in experiment [1] (setting [5]) and 3.68 mg/24 h in experiment [1] (setting [7]). For the same compound, the “Urine Uric acid conc.” value in experiment [1] (setting [4]) was determined as 38.9 mg %; in experiment [1] (setting [6]) it was 32.4 mg %; in experiment [1] (setting [8]), 34.7 mg %. In experiment [1] (setting [9]), the “Serum Uric acid conc.” value was found to be 4.07 mg %.

Take `CC(=O)ON=CC(=C(Br)c1ccccc1)c1ccccc1` [Example 6, O-acetyl-2-phenyl-3-bromo-cinnamic aldoxime]: the “Urine Amount of uric acid” value in experiment [1] (setting [3]) turned out to be 2.40 mg/24 h; in experiment [1] (setting [5]), 2.96 mg/24 h; in experiment [1] (setting [7]) it was 2.98 mg/24 h. For the same compound, the “Urine Uric acid conc.” value was found to be 33.4 mg % in experiment [1] (setting [4]), 32.8 mg % in experiment [1] (setting [6]) and 32.7 mg % in experiment [1] (setting [8]). Further, the “Serum Uric acid conc.” value in experiment [1] (setting [9]) stood at 3.65 mg %.

Regarding `CCCCCCCCCC(=O)ON=CC(=C(Br)c1ccccc1)c1ccccc1` [Example 7, O-caprinoyl-2-phenyl-3-bromo-cinnamic aldoxime], the “Urine Amount of uric acid” value in experiment [1] (setting [3]) was found to be 2.78 mg/24 h; in experiment [1] (setting [5]), 2.99 mg/24 h; in experiment [1] (setting [7]), 2.74 mg/24 h. Moreover, the results for the “Urine Uric acid conc.” value in experiment [1] (setting [4]), in experiment [1] (setting [6]) and in experiment [1] (setting [8]) were 36.4 mg %, 31.8 mg % and 31.2 mg %, respectively. For the same compound, the “Serum Uric acid conc.” value in experiment [1] (setting [9]) came to 4.03 mg %.

For the compound `CCCCCCCCCC(=O)ON=CC(=C(Cl)c1ccc(OC)cc1)c1ccc(OC)cc1` [Example 8, O-caprinoyl-2-(4-methoxyphenyl)-3-chloro-p-methoxy-cinnamic aldoxime], the “Uric acid excretion (-x ± SD)” value is listed as 3.25 + 1.68 mg/24 hr./100 g b. wt in experiment [2] (Table 2 II, 0.3 mg/kg, control 2.74 + 1.43) and 2.46 + 1.19 mg/24 hr./100 g b. wt in experiment [2] (Table 2 II, 3.0 mg/kg, control 2.74 + 1.43). In addition, the “Uric acid serum (-x (mg %) ± SD)” value in experiment [2] (Table 2 II, 0.3 mg/kg) is 5.00 + 0.54 mg %; in experiment [2] (Table 2 II, 3.0 mg/kg), 4.81 + 0.74 mg %. The “Uric acid excretion, % control” value in experiment [2] (setting [10]) amounted to 118 % control; in experiment [2] (setting [11]), 89 % control. Also, the entries for the “Uric acid serum, % control” value in experiment [2] (setting [10]) and in experiment [2] (setting [11]) were 92 % control and 88 % control, respectively. In addition, the “Activity in words (heading of Table 2)” value in experiment [2] (oxonate rat) was “uricosuric and hypouricemic activity”.

Turning to `O=C(Nc1ccccc1)ON=CC(=C(Br)c1ccccc1)c1ccccc1` [Example 14, 2-phenyl-3-bromo-cinnamic aldoxime-O-(N-phenyl)-carbamate], the “Amount of urine Na+” value in experiment [2] (Table 2 I, 3 mg/kg, control 0.09 + 0.03) is reported as 0.11 + 0.02 mg/24 hr/100 g b. wt. In experiment [2] (Table 2 I, 3 mg/kg, control 7.1 + 2.1), the “Amount of urine excreted (-x + SD)” value is 9.3 + 3.06 ml/24 hr./100 g b. wt. For the same compound, the “urine pH” value in experiment [2] (Table 2 I, 3 mg/kg, control 7.5 + 0.2, * statistically significant (Scheffe test)) was 7.2 + 0.08. In experiment [2] (setting [12]), the “Amount of urine excreted, % control” value is recorded as 130 % control and the “Uric acid excretion, % control” value was determined as 118 % control. In addition, the “Uric acid excretion (-x ± SD)” value in experiment [2] (Table 2 I, oxonate rat, 3 mg/kg, into the stomach) is 3.52 ± 1.11 mg/24 hr./100 g b. wt. In addition, the “Activity in words (heading of Table 2)” value in experiment [2] (oxonate rat) is recorded as “uricosuric activity”.
